Patent US20060100291A1, “Antibacterial compounds” (priority 2001, published 2006)
≈ marks a conversion by molar mass, not a printed value. Entries after “also recorded” stand apart in the source; their conditions may differ. Like-named read-outs stand apart in the source and are kept apart here.

Experiments:
[1] = tested on: Bacillus subtilis (ATCC strain 19659); assay: Disc diffusion assay; format: cell-based; conditions: for BS activity: width of zone of growth inhibition / zone of inhibition at 60 µg/disc: disc assay dosed at 60 μg/disc, 24 h; for zone of inhibition at 60 µg/disc: read-out: BS activity: width of zone of growth inhibition
Description: The compounds of Examples 1 to 7 were also tested against another Gram-positive bacterium, Bacillus subtilis (ATCC strain 19659), in disc diffusion assays. […] The positive control in this assay was the clinically proven antimicrobial agent chloramphenicol (30 μg/disc), which gave a 12 mm zone.

[2] = tested on: Methicillin Resistant Staphylococcus aureus (MRSA) (strain 1126); assay: MIC in Mueller Hinton broth, serial doubling dilutions; format: cell-based
Description: Minimum inhibitory concentrations [MIC] were tested in Mueller Hinton [MH] broth. The human pathogen Methicillin Resistant Staphylococcus aureus (MRSA) (strain 1126) was provided by the University of Otago. Glass vials (30 mL) containing MH broth (10 mL) were inoculated from an actively growing culture and incubated overnight at 37° C. A standardized procedure to suspend each compound in MH broth was used. Each compound (5 mg) was dissolved in ethanol (1 mL). MH broth (9 mL) was then added to the ethanol containing the compound, resulting in stock solution concentrations of 500 μg /mL.
The MIC for each compound was determined by carrying out 3 replicate serial dilutions in Nunc® 48 well microtiter plates. To test the MICs, each compound stock solution was vigorously mixed before I mL was dispensed aseptically by pipette into 3 of the 6 first wells of a microtiter plate. MH broth (0.5 mL) was dispensed into all wells of the microtiter plate except the first row. Serial doubling dilutions were carried out through 12 wells (1½ microtiter plates). Mixing was carried out by repeated pipetting of 100 μL amounts. 500 μL was discarded from the last wells to conserve the […] compound concentration. Each well was inoculated with an aliquot (25 μL) of MRSA suspension diluted by 10^−2. All test and control microtiter plates were incubated at 37° C. and read after 48 h and 72 h.

[3] = background statement, organism not given; cited from earlier work
[4] = tested on: Enterococcus faecalis CD2-49 Gentamicin resistant; assay: Broth microdilution MIC (THB); format: cell-based; conditions: E. faecalis CD2-49 gentamicin resistant, three experiments
Description: (§1) Minimum inhibitory concentrations (MICs) were determined using a broth microdilution method. Bacterial isolates were inoculated into Todd-Hewitt broth (THB) and incubated at 37 C with shaking (200 rpm) for 18 h. Overnight cultures were diluted to an OD of 0.01 (at […], 1 cm light path) to give a final inoculum for broth microdilution of OD 0.005. Doubling dilutions of the test compounds were prepared in THB in microtitre plates. Tween 80 (Sigma) was added at a final concentration of 14 % to enhance solubility. The range of concentrations tested (with doubling dilutions) was 16 μg/mL to 0.063 μg/mL. Microtitre plates were incubated at 37 ° C. for 18 h with gentle shaking. Plates were read using a microplate reader (Multiskan Ascent, Labsystems), measuring the OD at 595 nm. Minimum bactericidal concentrations (MBCs) were determined by placing 5 μL of culture from wells without growth onto THB plates and incubating at 37° C. for 18 h. The MBC was the lowest concentration without growth from the drop of culture.

[5] = tested on: E. faecium AR99/118 Ampicillin resistant; assay: Broth microdilution MIC (THB); format: cell-based; conditions: Enterococcus faecium, three experiments
Description: as §1

[6] = tested on: Enterococcus faecalis ATCC29212 Wild-type (fully susceptible); assay: Broth microdilution MIC (THB); format: cell-based; conditions: three experiments
Description: as §1

[7] = tested on: S. aureus OUM1127 Erythromycin resistant; assay: Broth microdilution MIC (THB); format: cell-based; conditions: Staphylococcus aureus, three experiments
Description: as §1

[8] = tested on: Enterococcus faecalis 8A-25 Vancomycin resistant (VRE, vanA); assay: Broth microdilution MIC (THB); format: cell-based; conditions: E. faecalis 8A-25 vancomycin resistant (VRE, vanA), three experiments
Description: as §1

[9] = tested on: S. aureus ATCC25923 Wild-type (fully susceptible); assay: Broth microdilution MIC (THB); format: cell-based; conditions: three experiments
Description: as §1

[10] = tested on: S. aureus OUM1126 Oxacillin resistant (MRSA); assay: Broth microdilution MIC (THB); format: cell-based; conditions: Staphylococcus aureus, three experiments
Description: as §1

[11] = tested on: S. aureus AS92/349 Mupirocin resistant; assay: Broth microdilution MIC (THB); format: cell-based; conditions: three experiments
Description: as §1

[12] = tested on: S. aureus PC-3 Vancomycin/Oxacillin resistant (GISA); assay: Broth microdilution MIC (THB); format: cell-based; conditions: Staphylococcus aureus, three experiments
Description: as §1

[13] = tested on: S. aureus ST94/1208 Oxacillin/Gentamicin resistant (cMRSA); assay: Broth microdilution MIC (THB); format: cell-based; conditions: Staphylococcus aureus, three experiments
Description: as §1

[14] = tested on: Swiss male mice (Mus musculus); assay: Acute toxicity in mice, intraperitoneal injection; format: in vivo; conditions: for acute toxic effects: ip in cottonseed oil, up to 400 mg/kg, observed 6 h plus 18 h
Description: Compound I has been tested in mice for acute toxicity.
A single trial was completed using twenty-five Swiss male mice (Mus musculus), weighing 20 g±2 g. Mice were selected by gender and weight, individually identified and randomly placed in 5 cages of 5 mice each. Mice were injected intraperitoneally with one of five levels of antibiotic [0 (control), 1, 2, 4 and 8 mg/ml]. Cottonseed oil was used as a carrier solution for the test substance. One mL samples were mixed before being injected using 1.0 ml syringes and 21G needles. Mice were observed continuously for 6 hours and any deaths or adverse symptoms recorded. This initial hour observation period was subsequently followed by another 18-hour monitoring period. […] This was also the case for mice injected solely with cottonseed oil. This is in direct contrast to weekly calibration assays using the toxic control saxitoxin dihydrochloride.

[15] = tested on: Enterococcus and S. aureus strains tested in Table 2; assay: Bacteriostatic/bactericidal concentrations (MIC/MBC) over the strains of Table 2; format: cell-based; conditions: all strains of Table 2; read-out: Bacteriocidal concentration (MBC)
Description: as §1

listera monocytogenes = assay: MIC against Listeria, by similar methods; format: cell-based
[16] = MH broth, 37° C., read after 48 h and 72 h, University of Otago strain 1126, read-out: MRSA activity: upper and lower limits of Minimum Inhibitory Concentration

With `CCCCCCCCCC(=O)C1=C(O)C(C)(C)C(=O)C(C)(C)C1=O` [Example 2, 5-hydroxy-4-(1-oxodecyl)-2,2,6,6,-tetramethyl-4-cyclohexene-1,3-dione] the “BS activity: width of zone of growth inhibition” value [1] was 7 mm.
For `CN[C@H](CC(C)C)C(=O)N[C@H]1C(=O)N[C@@H](CC(N)=O)C(=O)N[C@H]2C(=O)N[C@H]3C(=O)N[C@H](C(=O)N[C@H](C(=O)O)c4cc(O)cc(O)c4-c4cc3ccc4O)[C@H](O)c3ccc(c(Cl)c3)Oc3cc2cc(c3O[C@@H]2O[C@H](CO)[C@@H](O)[C@H](O)[C@H]2O[C@H]2C[C@](C)(N)[C@H](O)[C@H](C)O2)Oc2ccc(cc2Cl)[C@H]1O` [vancomycin, reference compound], the MIC ([2]; read-out: MRSA activity: upper and lower limits of Minimum Inhibitory Concentration) is listed as 1.6 to 3.1 µg/mL (≈ 1.1 to 2.14 µM) and the MIC [3] is listed as “approximately 2 μg/ml”.
`CCCCCCCCCCCC(=O)C1=C(O)C(C)(C)C(=O)C(C)(C)C1=O` [Example 1, 5-hydroxy-4-(1-oxododecyl)-2,2,6,6-tetramethyl-4-cyclohexene-1,3-dione] showed a zone of inhibition at 60 µg/disc ([1]; Bacillus subtilis, ATCC19659) of 3 mm, an MIC [4] of 0.5 µg/mL (≈ 1.37 µM) and an MIC ([4]; Enterococcus faecalis, read-out: MIC) of 1 µg/mL (≈ 2.74 µM). For the same compound, the MIC [5] was 2 µg/mL (≈ 5.49 µM), the MIC ([6]; E. faecalis ATCC29212 wild-type) was 0.5 µg/mL (≈ 1.37 µM) and the MIC ([6]; Enterococcus faecalis, ATCC29212, E. faecalis ATCC29212 wild-type, read-out: MIC) was 1 µg/mL (≈ 2.74 µM). The MIC [7] was 1 µg/mL (≈ 2.74 µM), the MIC [8] was 1 µg/mL (≈ 2.74 µM) and the MIC ([9]; S. aureus ATCC25923 wild-type) was 1 µg/mL (≈ 2.74 µM). For the same compound, the MIC ([9]; Staphylococcus aureus, ATCC25923, S. aureus ATCC25923 wild-type, read-out: MIC) was 2 µg/mL (≈ 5.49 µM), the MIC [10] was 1 µg/mL (≈ 2.74 µM) and the MIC ([11]; Staphylococcus aureus, read-out: MIC) was 1 µg/mL (≈ 2.74 µM). For the same compound, the MIC [11] was 2 µg/mL (≈ 5.49 µM), the MIC [12] was 2 µg/mL (≈ 5.49 µM) and the MIC [13] was 1 µg/mL (≈ 2.74 µM). For the same compound, the mouse deaths ([14]; ip in cottonseed oil, 1, 2, 4 and 8 mg/ml, 1 mL) was “no mouse deaths were recorded”, the acute toxic effects ([14]; listed as Compound I) was “no toxic effects; also recorded: no adverse toxic symptoms” and the acute toxic effects ([14]; listed as Example I) was “not toxic to mice”. The MIC [2, 16] was 0.5 to 1 µg/mL (≈ 1.37 to 2.74 µM), the MBC [15] was ≥ 8 µg/mL and the MIC (listera monocytogenes) was < 3.9 µg/mL.
For `O=C(N[C@H](CO)[C@H](O)c1ccc([N+](=O)[O-])cc1)C(Cl)Cl` [chloramphenicol, reference compound], the zone of inhibition at 30 µg/disc ([1]; Bacillus subtilis, ATCC19659, positive control, 30 μg/disc, read-out: width of zone of inhibition) was 12 mm.
`CCCCCCCCCCCC(=O)C1=C(O)C(C)(C)C(=O)C(C)(CC=C(C)C)C1=O` (centres unmarked) [Example 7, 5-hydroxy-4-(1-oxododecyl)-2-prenyl-2,6,6trimethyl-4-cyclohexene-1,3-dione] showed a zone of inhibition at 60 µg/disc ([1]; Bacillus subtilis, ATCC19659) of 0 mm and an MIC [2, 16] of 1 to 2 µg/mL (≈ 2.39 to 4.78 µM).
In the case of `CCCCCCCCCCCCCCCC(=O)C1=C(O)C(C)(C)C(=O)C(C)(C)C1=O` [Example 3, 5-hydroxy-4(1-oxohexadecyl)-2,2,6,6-tetramethyl-4-cyclohexene-1,3-dione], the zone of inhibition at 60 µg/disc ([1]; Bacillus subtilis, ATCC19659) is reported as 0 mm, the MIC [2, 16] is reported as 2 to 7.8 µg/mL (≈ 4.75 to 18.5 µM) and the melting point is reported as 39 °C.
For `CCCCCCCCCCCC(=O)C1=C(O)C(CC)(CC)C(=O)C(CC)(CC)C1=O` [Example 6], the “BS activity: width of zone of growth inhibition” value [1] was 0 mm.
In the case of “5-hydroxy-4-(1-oxopropylcyclohexl)-2,6,6-tetramethyl-4-cyclohexene-1,3-dione [Example 5]”, the “BS activity: width of zone of growth inhibition” value [1] is reported as 12 mm.
Work on `CC1(C)C(=O)C(C2(C=O)CCCCC2)=C(O)C(C)(C)C1=O` [Example 4, 5-hydroxy-4(1-oxomethylcyclohexyl)-2,2,6,6-tetramethyl-4-cyclohexene-1,3dione] yielded a zone of inhibition at 60 µg/disc ([1]; Bacillus subtilis, ATCC19659) of 0 mm, an MIC [2, 16] of 15.6 to 62.5 µg/mL (≈ 53.4 to 214 µM) and a melting point of 47.8 °C.
